Measurements: PubChem BioAssay AID2060488 (Molecular Pharmacology Branch, DTP, NCI, 2025)

Tested on: 966289-007-R4-J1-PDC complex spheroid viability
Test: Anticancer human tumor 966289-007-R4-J1-PDC patient-derived pancreatic adenocarcinoma cell line growth inhibition [GQUAD]
Settings: for IC50: curve of first compound; for viability, T/C: stronger effect = lower value
Text: DNA G-quadruplex Stabilizer Agents in Combinations in Complex Spheroids
A high-throughput screen of multi-cell type tumor spheroids was designed to identify active combinations of DNA G-quadruplex stabilizer agents and targeted small molecules. Complex spheroids include a stromal component modeled by human endothelial cells (HUVEC) and fibroblasts modeled by human mesenchymal stem cells (MSCs). The concentration ranges selected for each drug and investigational agent were based upon clinically achievable concentrations if the clinical Cmax of the agent was known.
Compounds. The drugs and investigational agents: pidnarulex (CX-5461; NSC782164), APTO-253 (NSC789042), BRACO-19 (NSC847499), peposertib (NSC802822), ceralasertib (NSC780249), elimusertib (NSC800525), camonsertib (NSC841442), AZD-1390 (NSC803789), olaparib (NSC753686), talazoparib (NSC767125), ART-558 (NSC835418), sotorasib (NSC818433), MRTX-1133 (NSC836407), SN-38 (NSC673596), topotecan (NSC609699), etoposide (NSC141540), doxorubicin (NSC123127), gemcitabine (NSC613327), 5-fluorouracil (NSC19893), paclitaxel (NSC125973), vemurafenib (NSC761431), panobinostat (NSC761190), R-306465 (JNJ-16241199; NSC773264), adavosertib (NSC754352), TP-3654 (NSC805149), carboplatin (NSC241240), KSQ-4279 (NSC840948), and staurosporine (NSC755774) were obtained from the National Cancer Institute (NCI) Developmental Therapeutics Program Chemical Repository (34). The FDA-approved anticancer drug set is available from the NCI Developmental Therapeutics Program. […] The stock solutions were prepared in dimethyl sulfoxide (DMSO, Sigma-Aldrich, St. Louis, MO, cat. D2650) at 800-fold the tested concentration and stored at -70 degrees C prior to their use. All drugs and investigational agents were tested over a range starting from a high concentration at or near the clinical Cmax and decreasing in half-log increments. If the clinical Cmax for an agent had not been determined, the highest concentration tested was 10 microM.
2.3 Cell Culture. All cells were maintained in an incubator at 37 degrees C and 5% CO2 with 95% humidity. The PDC lines were cultured according to standard operating procedures established by the NCI PDMR. All PDCs were thawed and cultured in Matrigel-coated flasks prepared with a working solution of 1X Ham's F-12 nutrient mix, without supplementation (Invitrogen, cat. 11765054), 100 U/mL penicillin-streptomycin (Invitrogen, cat. 15140122), and 2.5% Matrigel (Corning Inc., cat. 354248) for the first three passages. The 857933-349-R-J2-PDC line was cultured in 6C/Colon 1B media, which includes advanced DMEM/F-12 (Thermo Fisher Scientific, cat. 12634028), 10 mM HEPES (Thermo Fisher Scientific, cat. 15630080), 1X GlutaMAX supplement (Thermo Fisher Scientific, cat. 35050061), 0.1 mg/mL primocin (InvivoGen, cat. ant-pm-2), 10% defined fetal bovine serum, heat inactivated (HyClone Laboratories Inc., cat. SH30070.03HI), 50% L-WRN conditioned media (ATCC, cat. CRL-3276), 1.25 mM N-Acetyl-L-cysteine (Sigma-Aldrich, cat. A9165), 10 mM nicotinamide (Sigma-Aldrich, cat. N0636), 1X B-27 supplement (Thermo Fisher Scientific, cat. 17504044), 1X N-2 supplement (Thermo Fisher Scientific, cat. 17502048), 10 microM Y-27632 dihydrochloride (Tocris Bioscience, cat. 1254), and 50 ng/mL human EGF recombinant protein (Thermo Fisher Scientific, cat. PHG0311). The 485176-168-R4-J1-PDC line was cultured in Panc media, which includes all 6C/Colon 1B media components plus 100 ng/mL human FGF-10 (Thermo Fisher Scientific, cat. 100-26), 500 nM SB-431542 (Selleckchem, cat. S1067), and gastrin (Tocris, cat. 3006).
[…]
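Note: spheroids exposed to the agents for seven days before readout.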
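Throughout, for viability, T/C: percent viability relative to DMSO vehicle control wells taken as 100%.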

`CC[C@@]1(O)C(=O)OCc2c1cc1n(c2=O)Cc2cc3c(CN(C)C)c(O)ccc3nc2-1` + CN(C)c1ccc(Nc2c3ccc(NC(=O)CCN4CCCC4)cc3nc3cc(NC(=O)CCN4CCCC4)ccc23)cc1 gave an IC50 (second compound 0.0316 µM) of 49.8 nM, an IC50 (second compound 0.1 µM) of 50.3 nM and an IC50 (second compound 0.316 µM) of 48.5 nM. The IC50 (second compound 1 µM) was 53.3 nM, the IC50 (second compound 3.16 µM) was 50.7 nM and the IC50 (second compound 10 µM) was 24.8 nM. For the same molecule, the viability, T/C (second compound 0.0316 µM, first compound 0.000999 µM) was 100%, the viability, T/C (second compound 0.0316 µM, first compound 0.00316 µM) was 96.9% and the viability, T/C (second compound 0.0316 µM, first compound 0.00999 µM) was 92.9%. The viability, T/C (second compound 0.0316 µM, first compound 0.0316 µM) was 82.1%, the viability, T/C (second compound 0.0316 µM, first compound 0.0999 µM) was 0.84% and the viability, T/C (second compound 0.0316 µM, first compound 0.316 µM) was 0.56%. For the same molecule, the viability, T/C (second compound 0.1 µM, first compound 0.000999 µM) was 102%, the viability, T/C (second compound 0.1 µM, first compound 0.00316 µM) was 98% and the viability, T/C (second compound 0.1 µM, first compound 0.00999 µM) was 103%. For the same molecule, the viability, T/C (second compound 0.1 µM, first compound 0.0316 µM) was 83.5%, the viability, T/C (second compound 0.1 µM, first compound 0.0999 µM) was 0.82% and the viability, T/C (second compound 0.1 µM, first compound 0.316 µM) was 0.54%. It also gave a viability, T/C (second compound 0.316 µM, first compound 0.000999 µM) of 101%, a viability, T/C (second compound 0.316 µM, first compound 0.00316 µM) of 96.1% and a viability, T/C (second compound 0.316 µM, first compound 0.00999 µM) of 107%. For the same molecule, the viability, T/C (second compound 0.316 µM, first compound 0.0316 µM) was 79%, the viability, T/C (second compound 0.316 µM, first compound 0.0999 µM) was 0.87% and the viability, T/C (second compound 0.316 µM, first compound 0.316 µM) was 0.83%. For the same molecule, the viability, T/C (second compound 1 µM, first compound 0.000999 µM) was 92.1%, the viability, T/C (second compound 1 µM, first compound 0.00316 µM) was 96.5% and the viability, T/C (second compound 1 µM, first compound 0.00999 µM) was 102%. The viability, T/C (second compound 1 µM, first compound 0.0316 µM) was 91%, the viability, T/C (second compound 1 µM, first compound 0.0999 µM) was 0.86% and the viability, T/C (second compound 1 µM, first compound 0.316 µM) was 0.61%. For the same molecule, the viability, T/C (second compound 3.16 µM, first compound 0.000999 µM) was 96.1%, the viability, T/C (second compound 3.16 µM, first compound 0.00316 µM) was 98.2% and the viability, T/C (second compound 3.16 µM, first compound 0.00999 µM) was 110%. The viability, T/C (second compound 3.16 µM, first compound 0.0316 µM) was 84.3%, the viability, T/C (second compound 3.16 µM, first compound 0.0999 µM) was 1.25% and the viability, T/C (second compound 3.16 µM, first compound 0.316 µM) was 0.55%. It also gave a viability, T/C (second compound 10 µM, first compound 0.000999 µM) of 104%, a viability, T/C (second compound 10 µM, first compound 0.00316 µM) of 89.2% and a viability, T/C (second compound 10 µM, first compound 0.00999 µM) of 110%. For the same molecule, the viability, T/C (second compound 10 µM, first compound 0.0316 µM) was 36.2%, the viability, T/C (second compound 10 µM, first compound 0.0999 µM) was 0.73% and the viability, T/C (second compound 10 µM, first compound 0.316 µM) was 0.68%.
